# Where no end group is shown, it is not given here.
# Target: T1, rabbit lung angiotensin converting enzyme (Oryctolagus cuniculus, UniProt P12822)
# T1 construct: rabbit lung angiotensin converting enzyme (Sigma Chemical Company, St. Louis, Mo.); purchased Sigma Chemical Company, St. Louis, Mo; host or cells: rabbit lung (tissue-derived enzyme)
# T1 sequence (P12822 34-1310): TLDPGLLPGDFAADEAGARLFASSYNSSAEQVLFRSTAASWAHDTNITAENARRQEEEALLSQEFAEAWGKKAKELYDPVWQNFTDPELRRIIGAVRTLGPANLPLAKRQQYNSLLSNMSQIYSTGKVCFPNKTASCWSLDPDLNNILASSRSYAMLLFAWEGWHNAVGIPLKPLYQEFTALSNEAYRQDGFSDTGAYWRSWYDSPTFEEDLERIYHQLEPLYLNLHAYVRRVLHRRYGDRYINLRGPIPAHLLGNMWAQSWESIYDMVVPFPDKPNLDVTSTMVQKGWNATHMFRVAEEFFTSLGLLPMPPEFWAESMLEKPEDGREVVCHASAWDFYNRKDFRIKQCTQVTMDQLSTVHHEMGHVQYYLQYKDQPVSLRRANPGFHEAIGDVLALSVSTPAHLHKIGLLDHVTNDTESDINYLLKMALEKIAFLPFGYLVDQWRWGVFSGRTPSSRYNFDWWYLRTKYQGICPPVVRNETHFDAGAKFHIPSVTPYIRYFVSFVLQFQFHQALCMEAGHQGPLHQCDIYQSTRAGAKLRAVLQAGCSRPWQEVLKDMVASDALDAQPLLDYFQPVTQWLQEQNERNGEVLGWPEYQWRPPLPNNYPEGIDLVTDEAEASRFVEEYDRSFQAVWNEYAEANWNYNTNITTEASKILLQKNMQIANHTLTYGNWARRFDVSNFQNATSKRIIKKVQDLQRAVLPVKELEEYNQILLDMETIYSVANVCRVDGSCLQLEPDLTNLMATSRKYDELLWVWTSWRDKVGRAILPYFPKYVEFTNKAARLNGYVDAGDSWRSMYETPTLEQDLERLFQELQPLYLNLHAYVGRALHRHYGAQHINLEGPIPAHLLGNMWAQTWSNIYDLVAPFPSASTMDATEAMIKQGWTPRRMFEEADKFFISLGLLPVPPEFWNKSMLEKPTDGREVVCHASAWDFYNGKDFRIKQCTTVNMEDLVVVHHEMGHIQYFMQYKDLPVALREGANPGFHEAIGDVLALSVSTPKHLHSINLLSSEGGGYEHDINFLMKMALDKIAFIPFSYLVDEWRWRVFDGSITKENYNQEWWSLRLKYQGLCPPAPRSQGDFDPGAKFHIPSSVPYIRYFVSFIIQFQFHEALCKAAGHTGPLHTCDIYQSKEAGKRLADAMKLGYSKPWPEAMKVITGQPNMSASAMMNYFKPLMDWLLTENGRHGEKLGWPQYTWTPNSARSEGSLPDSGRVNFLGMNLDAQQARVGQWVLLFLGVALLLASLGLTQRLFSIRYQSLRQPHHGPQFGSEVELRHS
# Experiment: ACE inhibitory activity, FAPGG substrate
# Format: biochemical
# Conditions: synthetic peptides, 37° C., 30 minutes, read-out: ACE Inhibition (IC50)
# Description: Angiotensin-I-converting enzyme inhibitory activity was determined using FAPGG as the substrate. A mixture containing 100 μl of 1 mM FAPGG, 20 μl of the soy peptide solution, and 80 μl of reaction solution (100 mM Tris-HCl, pH 8.3, containing 0.3 M NaCl, 10 mM ZnCl2, and 0.025 U/ml rabbit lung angiotensin converting enzyme (Sigma Chemical Company, St. Louis, Mo.)) was added to a 96-well plate. The reaction was carried out at 37° C. for 30 minutes and the absorbance of the mixture was read using a spectrophotometry set at 340 nm to determine the enzyme activity. 20 μl of distilled water was used in the place of the soy peptide solution in each assay as a negative control. The inhibitory potency (IC50) of each fraction of the soy peptides was determined from plots of percentage inhibition vs. log 10[soy peptide] (mg/L). IC50 value of Angiotensin-I-converting enzyme, defined as the amount of soy peptide that produced a 50% inhibition of ACE activity, was determined for selected fractions. Captopril was used as the positive control.
row,Substance,IC50 [µM]
1,"IPRPRPRP [IP-8, IPRPRPRP]",7.2 ± 1.7
2,"LKPDNR [LR-6, LKPDNR]",121 ± 1.7
3,"PIPFP [PP-5, PIPFP]",66 ± 15.3
4,"PVNKP [PP-5-1, PVNKP]",46.1 ± 5.2
